According to patent publication US7807673B2, “2-pyrimidinyl pyrazolopyridine ErbB kinase inhibitors” (GlaxoSmithKline LLC, priority 2005, dated 2010):

Legend:
[1] = tested on: Colo205 tumor cell lines; assay: Methylene blue growth inhibition assay (cellular Method A); assay type: cell-based; conditions: Homo sapiens, COLO 205, 72 h, Table 3, Method A methylene blue, 3 days
Experimental: (§1) Human breast (BT474) and head and neck (HN5) were cultured in low glucose DMEM (Life Technologies 12320-032) containing 10% fetal bovine serum (FBS). Human colon tumor cells (Colo205) were cultured in DMEM (Invitrogen, 10564) containing 10% FBS. The SV40 transformed human mammary epithelial cell line to HB4a was transfected with either human H-ras cDNA (HB4a r4.2) or the human c-ErbB2 cDNA (HB4a c5.2). The HB4a clones were cultured in RPMI containing 10% FBS, insulin ([…]), hydrocortisone ([…]), supplemented with the selection agent hygromycin B ([…]). All lines were grown in a humidified incubator at 37° C. in 95% air, 5% CO2. Cells were harvested using trypsin/EDTA, counted using a haemocytometer, and plated in 100 microliters of the appropriate media, at the following densities, in a 96-well tissue culture plate (Falcon 3075): BT474 10,000 cells/well, HN5 3,000 cells/well. The next day, compounds were diluted in DMEM containing […] gentamicin, at twice the final required concentration, from 10 mM stock solutions in DMSO. 100 microliters/well of these dilutions were added to the 100 microliters of media currently on the cell plates. Medium containing 0.6% DMSO was added to control wells. Compounds diluted in DMEM were added to all cell lines. The final concentration of DMSO in all wells was 0.3%. Cells were returned to the incubator (37° C., […]) for 3 days. Medium was then removed by aspiration. Cell biomass was estimated by staining cells with 90 microliters per well methylene blue (Sigma M9140, 0.5% in 1:1 ethanol:water), and incubation at rt for at least 30 minutes. Stain was removed, and the plates rinsed by immersion in deionized water and air-dried. To release stain from the cells 100 microliters of solubilization solution was added (1% N-lauroyl sarcosine, Sodium salt, Sigma L5125, in PBS), and plates were shaken gently for about 30 minutes. Optical density at 620 nm was measured on a microplate reader. Percent inhibition of cell growth was calculated relative to vehicle treated control wells. Concentration of compound that inhibits 50% of control cell growth (IC50) was interpolated using nonlinear regression (Levenberg-Marquardt) and the equation, y=Vmax*(1−(x/(K+x)))+Y2, where “K” was equal to the IC50. Method B: Celltiter Glo® Growth Inhibition Assays

[2] = tested on: BT474 and HN5 tumor cell lines; assay: as above; assay type: cell-based; conditions: Homo sapiens, BT-474 and HN5, 72 h; Table 2, Method A methylene blue, 3 days; class over BT474 and HN5;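 further: class counts the more potent of the two cell lines (BT474 or HN5)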
Experimental: as §1

[3] = molecular target: T1, ErbB2 or EGFR; assay: ErbB enzyme substrate phosphorylation assay (HTRF), Method B (enzyme pre-incubated with compound 1 hour); assay type: biochemical; conditions: Table 1, enzyme Method B: enzyme mix incubated with compound 1 hour at 20° C., reaction started with substrate mix; class over ErbB2 or EGFR
T1 construct: enzymes purified from a baculovirus expression system
How it was run: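 Baculovirus-expressed kinase (0.8 nM EGFR or 10 nM ErbB2 in enzyme mix) phosphorylated biotinylated Peptide C (0.8 µM in substrate mix) with 20 µM ATP in substrate mix, MOPS pH 7.5, MnCl2, 90 min at 20 °C. Method A started with enzyme; Method B pre-incubated enzyme with compound 1 h at 20 °C. HTRF read-out; IC50 from 12-point curve (0.00027–47.6 µM), reported as pIC50.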

What does the source list for CN(C)Cc1cccc(Nc2nccc(-c3c(-c4cccc(NC(=O)Cc5ccsc5)c4)nn4ccccc34)n2)c1 [Example 24, N-(3-{3-[2-({3-[(Dimethylamino)methyl]phenyl}-amino)-4-pyrimidinyl]pyrazolo[1,5-a]pyridin-2-yl}phenyl)-2-(3-thienyl)acetamide]?
IC50 [1]: 0.1 to 1 µM; IC50 [2]: 0.1 to 1 µM; Activity (Method) [3]: +++ (B) (at least one pIC50 measurement of greater than 7 against either ErbB2 or EGFR)

How did the IC50 [1] turn out when CN(C)Cc1cccc(Nc2nccc(-c3c(-c4cccc(NC(=O)Cc5c(F)cccc5F)c4)nn4ccccc34)n2)c1 [Example 25, 2-(2,6-Difluorophenyl)-N-(3-{3-[2-({3-[(dimethylamino)methyl]-phenyl}amino)-4-pyrimidinyl]pyrazolo[1,5-a]pyridin-2-yl}phenyl)acetamide] was run?
The IC50 was 0.1 to 1 µM.

What about the IC50 [2] of the same compound?
The IC50 was over 1 µM.

And the “Activity (Method)” value [3]?
Its value is “++ (B) (at least one pIC50 measurement greater than 6 against either ErbB2 or EGFR but no measurement greater than pIC50 of 7)”.

CN(C)Cc1cccc(Nc2nccc(-c3c(-c4cccc(NC(=O)Cc5cccnc5)c4)nn4ccccc34)n2)c1 [Example 26, N-(3-{3-[2-({3-[(Dimethylamino)methyl]phenyl}amino)-4-pyrimidinyl]pyrazolo[1,5-a]pyridin-2-yl}phenyl)-2-(3-pyridinyl)acetamide] was tested. Which IC50 [1] did it give?
The IC50 was over 1 µM.

And the IC50 [2]?
The IC50 was over 1 µM.

And the “Activity (Method)” value [3]?
The value was “++ (B) (at least one pIC50 measurement greater than 6 against either ErbB2 or EGFR but no measurement greater than pIC50 of 7)”.

For CN(C)Cc1cccc(Nc2nccc(-c3c(-c4cccc(NC(=O)Cc5ccccn5)c4)nn4ccccc34)n2)c1 [Example 27, N-(3-{3-[2-({3-[(Dimethylamino)methyl]phenyl}amino)-4-pyrimidinyl]pyrazolo[1,5-a]pyridin-2-yl}phenyl)-2-(2-pyridinyl)acetamide], which IC50 [1] is on record?
Its IC50 is over 1 µM.

And the IC50 [2]?
The IC50 was over 1 µM.

And the “Activity (Method)” value [3]?
The value was “++ (B) (at least one pIC50 measurement greater than 6 against either ErbB2 or EGFR but no measurement greater than pIC50 of 7)”.

Cc1cc(CC(=O)Nc2cccc(-c3nn4ccccc4c3-c3ccnc(Nc4cccc(CN(C)C)c4)n3)c2)on1 [Example 28, N-(3-{3-[2-({3-[(Dimethylamino)methyl]-phenyl}amino)-4-pyrimidinyl]pyrazolo[1,5-a]pyridin-2-yl}phenyl)-2-(3-methyl-5-isoxazolyl)acetamide] was tested. Which IC50 [1] did it give?
The IC50 was over 1 µM.

What about the IC50 [2] of the same compound?
The IC50 was over 1 µM.

And the “Activity (Method)” value [3]?
The value was “+++ (B) (at least one pIC50 measurement of greater than 7 against either ErbB2 or EGFR)”.

Which results are given for Cc1sc(-c2ccccc2)nc1CC(=O)Nc1cccc(-c2nn3ccccc3c2-c2ccnc(Nc3cccc(CN(C)C)c3)n2)c1 [Example 29, N-(3-{3-[2-({3-[(Dimethylamino)methyl]phenyl}amino)-4-pyrimidinyl]pyrazolo[1,5-a]pyridin-2-yl}phenyl)-2-(5-methyl-2-phenyl-1,3-thiazol-4-yl)acetamide]?
IC50 [1]: > 1 µM; IC50 [2]: > 1 µM; Activity (Method) [3]: + (B) (no pIC50 measurement greater than 6 against either ErbB2 or EGFR)

For CN(C)CCOc1cccc(Nc2nccc(-c3c(-c4cccc(NC(=O)Cc5ccsc5)c4)nn4ccccc34)n2)c1 [Example 39, N-[3-(3-{2-[(3-{[2-(dimethylamino)ethyl]oxy}phenyl)amino]-4-pyrimidinyl}pyrazolo[1,5-a]pyridin-2-yl)phenyl]-2-(3-thienyl)acetamide], which IC50 [1] is on record?
The IC50 was 0.1 to 1 µM.

And the IC50 [2]?
The IC50 was 0.1 to 1 µM.

What about the “Activity (Method)” value [3] of the same compound?
Its value is “+++ (B) (at least one pIC50 measurement of greater than 7 against either ErbB2 or EGFR)”.

Which IC50 [1] does the source give for NCc1cccc(Nc2nccc(-c3c(-c4cccc(NC(=O)Cc5ccsc5)c4)nn4ccccc34)n2)c1 [Example 43, N-{3-[3-(2-{[3-(Aminomethyl)phenyl]amino}-4-pyrimidinyl)pyrazolo[1,5-a]pyridin-2-yl]phenyl}-2-(3-thienyl)acetamide] here?
Its IC50 is over 1 µM.

And the IC50 [2]?
The IC50 was 0.1 to 1 µM.

And the “Activity (Method)” value [3]?
Its value is “+++ (B) (at least one pIC50 measurement of greater than 7 against either ErbB2 or EGFR)”.

Which results are given for O=C(Cc1cccs1)Nc1cccc(-c2nn3ccccc3c2-c2ccnc(Nc3ccc(Cl)c(OCCN4CCCC4)c3)n2)c1 [Example 44, N-[3-(3-{2-[(4-chloro-3-{[2-(1-pyrrolidinyl)ethyl]oxy}phenyl)amino]-4-pyrimidinyl}pyrazolo[1,5-a]pyridin-2-yl)phenyl]-2-(2-thienyl)acetamide]?
IC50 [1]: > 1 µM; IC50 [2]: > 1 µM; Activity (Method) [3]: +++ (B) (at least one pIC50 measurement of greater than 7 against either ErbB2 or EGFR)

How did the IC50 [1] turn out when CN(C)CCOc1cc(Nc2nccc(-c3c(-c4cccc(NC(=O)Cc5cccs5)c4)nn4ccccc34)n2)ccc1Cl [Example 45] was run?
The IC50 was over 1 µM.

And the IC50 [2]?
Its IC50 is over 1 µM.

And the “Activity (Method)” value [3]?
The value was “++ (B) (at least one pIC50 measurement greater than 6 against either ErbB2 or EGFR but no measurement greater than pIC50 of 7)”.

With CN(C)C1Cc2ccc(Nc3nccc(-c4c(-c5cccc(NC(=O)Cc6cccs6)c5)nn5ccccc45)n3)cc2C1 (stereo not drawn) [Example 53, N-{3-[3-(2-{[2-(Dimethylamino)-2,3-dihydro-1H-inden-5-yl]amino}pyrimidin-4-yl)pyrazolo[1,5-a]pyridin-2-yl]phenyl}-2-(2-thienyl)acetamide] as the compound, how does the IC50 [1] read?
Its IC50 is 0.1 to 1 µM.

What about the IC50 [2] of the same compound?
Its IC50 is 0.1 to 1 µM.

What about the “Activity (Method)” value [3] of the same compound?
Its value is “+++ (B) (at least one pIC50 measurement of greater than 7 against either ErbB2 or EGFR)”.

How did the IC50 [1] turn out when NC1Cc2ccc(Nc3nccc(-c4c(-c5cccc(NC(=O)Cc6cccs6)c5)nn5ccccc45)n3)cc2C1 (stereo not drawn) [Example 54, N-[3-(3-{2-[(2-Amino-2,3-dihydro-1H-inden-5-yl)amino]-4-pyrimidinyl}pyrazolo[1,5-a]pyridin-2-yl)phenyl]-2-(2-thienyl)acetamide] was run?
Its IC50 is 0.1 to 1 µM.

What about the IC50 [2] of the same compound?
Its IC50 is under 0.1 µM.

And the “Activity (Method)” value [3]?
Its value is “+++ (B) (at least one pIC50 measurement of greater than 7 against either ErbB2 or EGFR)”.

Which IC50 [1] does the source give for NC1CCc2ccc(Nc3nccc(-c4c(-c5cccc(NC(=O)Cc6cccs6)c5)nn5ccccc45)n3)cc2C1 (stereo not drawn) [Example 55, N-[3-(3-{2-[(7-Amino-5,6,7,8-tetrahydro-2-naphthalenyl)amino]-4-pyrimidinyl}pyrazolo[1,5-a]pyridin-2-yl)phenyl]-2-(2-thienyl)acetamide] here?
The IC50 was 0.1 to 1 µM.

And the IC50 [2]?
Its IC50 is 0.1 to 1 µM.

What about the “Activity (Method)” value [3] of the same compound?
The value was “+++ (B) (at least one pIC50 measurement of greater than 7 against either ErbB2 or EGFR)”.
